Test results published in the supplement of paper PMC10307832.

Experiments:
Experiment in all cases: relative viability (nuclei count vs DMSO), 5 days (fraction); higher = more cells survive
SGI-1776 + Lapatinib = compound: CN1CCC(CNc2ccc3ncc(-c4cccc(OC(F)(F)F)c4)n3n2)CC1 [SGI-1776] + CS(=O)(=O)CCNCc1ccc(-c2ccc3ncnc(Nc4ccc(OCc5cccc(F)c5)c(Cl)c4)c3c2)o1 [Lapatinib] (partner 2 µM)
Summary of the method: (§1)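 Each reported value is a median over duplicate plates. It expresses relative viability: treated-well nuclei count divided by vehicle-well nuclei count. Lung cancer cell lines in 1536-well plates were dosed by pin tool a day after seeding, alone with one drug or with a fixed anchor-drug dose plus five library-drug doses (not always all listed) in √10 steps, and nuclei were counted after 5 days.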

Entinostat + Linsitinib = compound: Nc1ccccc1NC(=O)c1ccc(CNC(=O)OCc2cccnc2)cc1 [Entinostat] + C[C@]1(O)C[C@@H](c2nc(-c3ccc4ccc(-c5ccccc5)nc4c3)c3c(N)nccn32)C1 [Linsitinib] (partner 1 µM)
Summary of the method: as §1

Entinostat + Navitoclax = compound: Nc1ccccc1NC(=O)c1ccc(CNC(=O)OCc2cccnc2)cc1 [Entinostat] + CC1(C)CCC(c2ccc(Cl)cc2)=C(CN2CCN(c3ccc(C(=O)NS(=O)(=O)c4ccc(N[C@H](CCN5CCOCC5)CSc5ccccc5)c(S(=O)(=O)C(F)(F)F)c4)cc3)CC2)C1 [Navitoclax] (partner 0.5 µM)
Summary of the method: as §1

[1] = compound: C1COCCN1C2=NC(=NC3=C2OC4=C3C=CC=N4)C5=CC(=CC=C5)NC(=O)C6=CN=C(C=C6)N + CS(=O)(=O)N1CCN(Cc2cc3nc(-c4cccc5[nH]ncc45)nc(N4CCOCC4)c3s2)CC1 [Pictilisib] (partner 1 µM)
Summary of the method: as §1

Row | Cell Line | relative viability (SGI-1776 + Lapatinib; first compound 0.08 µM) | relative viability (SGI-1776 + Lapatinib; first compound 0.8 µM) | relative viability (SGI-1776 + Lapatinib; first compound 2.53 µM) | relative viability (SGI-1776 + Lapatinib; first compound 8 µM) | relative viability (Entinostat + Linsitinib; first compound 0.02 µM) | relative viability (Entinostat + Linsitinib; first compound 0.06325 µM) | relative viability (Entinostat + Linsitinib; first compound 0.2 µM) | relative viability (Entinostat + Linsitinib; first compound 0.6325 µM) | relative viability (Entinostat + Linsitinib; first compound 2 µM) | relative viability (Entinostat + Navitoclax; first compound 0.02 µM) | relative viability (Entinostat + Navitoclax; first compound 0.06325 µM) | relative viability (Entinostat + Navitoclax; first compound 0.2 µM) | relative viability (Entinostat + Navitoclax; first compound 0.6325 µM) | relative viability (Entinostat + Navitoclax; first compound 2 µM) | relative viability ([1]; first compound 0.02 µM) | relative viability ([1]; first compound 0.06325 µM) | relative viability ([1]; first compound 0.2 µM) | relative viability ([1]; first compound 0.6325 µM) | relative viability ([1]; first compound 2 µM)
1 | SW 1573 | 1.29 | 1.09 | 1.15 | 1.06 | 0.721 | 0.93 | 0.811 | 0.884 | 0.609 | 0.933 | 1.35 | 1.07 | 0.996 | 0.628 | 0.555 | 0.54 | 0.621 | 0.534 | 0.344
2 | LU99A | 1.03 | 1.16 | 1.07 | 0.902 | 0.505 | 0.552 | 0.479 | 0.394 | 0.348 | 0.752 | 0.916 | 0.75 | 0.567 | 0.421 | 0.361 | 0.344 | 0.308 | 0.321 | 0.267
3 | NCI-H1299 | 1.02 | 0.991 | 0.99 | 0.95 | 0.962 | 0.914 | 0.95 | 0.754 | 0.601 | 1.05 | 1.01 | 1.05 | 0.936 | 0.763 | 0.866 | 0.943 | 0.808 | 0.791 | 0.442
4 | NCI-H1355 | 0.915 | 0.989 | 1.01 | 0.799 | 0.811 | 0.769 | 0.653 | 0.551 | 0.468 | 0.987 | 0.946 | 0.747 | 0.583 | 0.444 | 0.336 | 0.424 | 0.413 | 0.423 | 0.459
5 | HARA | 0.886 | 0.856 | 0.617 | 0.586 | 0.917 | 0.938 | 0.938 | 0.793 | 0.577 | 1.18 | 1.14 | 1.12 | 1.09 | 0.935 | 0.273 | 0.319 | 0.329 | 0.326 | 0.291
6 | LXF-289 | 0.945 | 0.941 | 0.893 | 0.895 | 0.982 | 0.985 | 0.917 | 0.785 | 0.632 | 0.929 | 0.908 | 0.922 | 0.786 | 0.567 | 0.782 | 0.861 | 0.703 | 0.758 | 0.602
7 | 201T | 1 | 0.981 | 1.02 | 0.942 | 1.1 | 1.13 | 1.09 | 0.902 | 0.617 | 1.2 | 1.16 | 1.1 | 0.959 | 0.779 | 0.661 | 0.66 | 0.654 | 0.735 | 0.696
